Data reported in PubChem BioAssay (NCI).
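96-well plates; 48 h exposure; 5 concentrations. Endpoints by linear interpolation between flanking doses. Not reached: highest tested concentration assigned. The concentration for 50% growth inhibition is given as GI50. At the TGI there is no net growth.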

How the values were obtained:
Experiment in all cases: DTP human tumour cell line panel, 48 h
[1] = system: U251 CNS
[2] = system: A549 NSCLC
[3] = system: HL-60(TB) leukemia
[4] = system: TK-10 renal
[5] = system: HCT-116 colon
[6] = system: PC-3 prostate
[7] = system: SW-620 colon
[8] = system: 786-0 renal
[9] = system: NCI-H522 lung
[10] = system: MALME-3M melanoma

| SMILES | TGI [1] [µM] | TGI [2] [µM] | TGI [3] [µM] | TGI [4] [µM] | TGI [5] [µM] | TGI [6] [µM] | TGI [7] [µM] | TGI [8] [µM] | TGI [9] [µM] | TGI [10] [µM] | GI50 [1] [µM] | GI50 [10] [µM] | GI50 [2] [µM] | GI50 [3] [µM] | GI50 [4] [µM] | GI50 [5] [µM] | GI50 [6] [µM] | GI50 [7] [µM] | GI50 [9] [µM] |
| --- | --- | --- | --- | --- | --- | --- | --- | --- | --- | --- | --- | --- | --- | --- | --- | --- | --- | --- | --- |
| Cc1c(C(=O)NNc2ccccc2)n2c(=S)[nH]nc2c2ccccc12 | > 100 | > 100 | > 100 | > 100 | > 100 | > 100 | > 100 | > 100 | > 100 | – | – | – | – | – | – | – | – | – | – |
| C=C1C[C@@H]2O[C@H]3[C@H]4[C@@H](C[C@@H](C)[C@@H](OC(C)=O)[C@H]42)[C@@H](C)CO[C@@]3(C)[C@H](OC(=O)CCCCCCC)CC1=O | 32.5 | 35.2 | – | 32.7 | 32 | 22.5 | 29.8 | 29.1 | 42.6 | – | – | – | – | – | – | – | – | – | – |
| Cc1nc2c(=O)n(-c3ccccc3)c(=O)n(-c3ccccc3)c2o1 | > 100 | > 100 | – | > 100 | > 100 | > 100 | > 100 | > 100 | > 100 | > 100 | – | – | – | – | – | – | – | – | – |
| CCOC(=O)/C=C/CCC(C)(C)COC(C)=O | > 10 | > 10 | > 10 | > 10 | > 10 | > 10 | > 10 | > 10 | > 10 | – | – | – | – | – | – | – | – | – | – |
| c1cncc(CSc2nc3ccccc3nc2-c2cccs2)c1 | – | > 100 | 47.9 | > 100 | > 100 | – | > 100 | > 100 | > 100 | > 100 | – | – | – | – | – | – | – | – | – |
| CCOC(=O)c1csc(NC(=O)CCN2CCCC2)n1 | > 100 | > 100 | > 100 | > 100 | – | > 100 | > 100 | – | – | – | – | – | – | – | – | – | – | – | – |
| CC(C)=CCC[C@@H](C)C1=C(Nc2ccccc2F)C(O)=C(C)C(=O)C1=O | > 31.6 | > 44.9 | – | > 100 | > 35.7 | > 100 | > 69.1 | > 100 | 17.1 | 29.5 | – | – | – | – | – | – | – | – | – |
| COc1cc2c(c(OC)c1)[C@H](C)N(Cc1ccccc1)C(C)C2 (stereo partly drawn) | – | > 100 | 24.8 | > 100 | > 100 | > 100 | > 100 | > 100 | > 100 | > 100 | – | – | – | – | – | – | – | – | – |
| COc1ccc(C2c3cc4c(cc3OC(Nc3ccccc3)C2C)OCO4)cc1 (stereo not drawn) | > 100 | > 100 | 59.3 | > 100 | > 100 | > 100 | > 100 | – | > 100 | > 100 | – | – | – | – | – | – | – | – | – |
| CC(C)(C)c1ccnc(N=C2N=C(Nc3cc(C(C)(C)C)ccn3)c3ccccc32)c1 | 51 | 62.3 | > 100 | 46.1 | 30.8 | – | > 100 | 43.9 | 44.8 | 63.7 | – | – | – | – | – | – | – | – | – |
| CC(C)(C)/C(O)=C\c1nc2cc(F)c(F)cc2[nH]c1=O | > 100 | – | > 100 | > 100 | > 100 | > 100 | > 100 | > 100 | – | – | – | – | – | – | – | – | – | – | – |
| CC(C)(C)N=NC(C)(C)N=C=O | > 100 | > 100 | > 100 | > 100 | > 100 | – | > 100 | > 100 | > 100 | > 100 | – | – | – | – | – | – | – | – | – |
| CCCn1cc2c3c(cccc31)C1C=C(C)CN(C)C1C2 (stereo not drawn) | 52 | 70.5 | 5.56 | – | 38.5 | – | 62.4 | – | 57.1 | 55.5 | – | – | – | – | – | – | – | – | – |
| Nc1c(N2CCOCC2)c(=O)nc2[nH]/c(=C\c3ccccc3O)c(=O)n12 | > 100 | > 100 | > 100 | > 100 | > 100 | – | > 100 | > 100 | > 100 | > 100 | – | – | – | – | – | – | – | – | – |
| CC(C)=C/C(CC(O)(C(F)(F)F)C(F)(F)F)=N\O | > 100 | > 100 | > 100 | > 100 | > 100 | – | > 100 | > 100 | – | > 100 | – | – | – | – | – | – | – | – | – |
| CC(=O)/C(=N\Nc1ccc(Cl)cc1)C(C)=Nc1ccc(C)cc1 | > 100 | > 100 | – | > 100 | > 100 | > 100 | > 100 | > 100 | 66.7 | 59.2 | – | – | – | – | – | – | – | – | – |
| O=c1c2cc([N+](=O)[O-])ccc2oc2nc3n(c(=O)c12)CCCS3 | > 100 | > 100 | – | > 100 | > 100 | > 100 | > 100 | > 100 | > 100 | > 100 | – | – | – | – | – | – | – | – | – |

| SMILES | TGI [1] [µM] | TGI [2] [µM] | TGI [3] [µM] | TGI [4] [µM] | TGI [5] [µM] | TGI [6] [µM] | TGI [7] [µM] | TGI [8] [µM] | TGI [9] [µM] | TGI [10] [µM] | GI50 [1] [µM] | GI50 [10] [µM] | GI50 [2] [µM] | GI50 [3] [µM] | GI50 [4] [µM] | GI50 [5] [µM] | GI50 [6] [µM] | GI50 [7] [µM] | GI50 [9] [µM] |
| --- | --- | --- | --- | --- | --- | --- | --- | --- | --- | --- | --- | --- | --- | --- | --- | --- | --- | --- | --- |
| O=[N+]([O-])c1ccc(-c2csc(=[N+]3CCCCC3)s2)cc1 | > 20.8 | > 100 | > 86.6 | > 100 | > 100 | – | > 100 | > 100 | 18.3 | 32.1 | – | – | – | – | – | – | – | – | – |
| CN(C)CCCNC(=O)N/N=C/c1ccccc1 | > 100 | > 100 | > 100 | > 100 | > 100 | – | > 100 | – | > 100 | > 100 | – | – | – | – | – | – | – | – | – |
| Oc1ccccc1/C=N/N1C(=S)N(C23CC4CC(CC(C4)C2)C3)C(=Nc2ccccc2)C1=Nc1ccccc1 | > 100 | > 100 | – | > 100 | > 100 | > 100 | > 100 | > 100 | > 100 | > 100 | – | – | – | – | – | – | – | – | – |
| CNC(=S)N1CCN(C(C)=O)C1=S | 17.2 | > 100 | > 100 | > 100 | > 100 | – | > 100 | > 100 | > 100 | 43.2 | – | – | – | – | – | – | – | – | – |
| C=C1[C@@H]2CCC3[C@]4(C)C(CC[C@@]5(C)C(=O)O[C@H](O)[C@@H]45)[C@H](O)[C@]3(C2)[C@H]1OC1OC(CO)C(O)C(O)C1O (stereo partly drawn) | > 50 | > 50 | > 50 | > 50 | > 50 | > 50 | > 50 | > 50 | – | > 50 | – | – | – | – | – | – | – | – | – |
| O=C1c2cc3c(cc2-c2c1c1ccc(Cl)cc1c(=O)n2CCCn1ccnc1)OCO3 | 11.3 | > 100 | 1.93 | > 100 | 11 | > 100 | > 100 | – | 30.7 | > 100 | < 0.01 | 0.0647 | 0.0136 | < 0.01 | 0.54 | < 0.01 | 0.0438 | < 0.01 | 0.0182 |
| CSc1nc(Cl)c2c(n1)Sc1nc3ccccc3n1C2O (stereo not drawn) | 15.2 | > 96.4 | – | > 100 | > 33.1 | > 100 | 25.7 | 18 | 7.28 | > 67.3 | – | – | – | – | – | – | – | – | – |
| CCCCNC(=O)Cn1c2ccc(Br)cc2c2nc3ccccc3nc21 | > 100 | > 100 | – | > 100 | > 100 | > 100 | > 100 | > 100 | – | – | – | – | – | – | – | – | – | – | – |
| CSc1ccc(/C=C2\N=C(c3ccccc3)N(c3nc4cc(Cl)c(F)cc4s3)C2=O)cc1 | 41.7 | > 100 | > 100 | > 100 | > 100 | > 100 | > 100 | > 100 | – | – | – | – | – | – | – | – | – | – | – |
| CN1c2ccccc2C2=C(c3ccccc3)CC[C@@H](C(=O)N3C4CC5CC[C@@]4(CS3(=O)=O)C5(C)C)[C@@H]21 (stereo partly drawn) | > 100 | > 100 | – | > 100 | > 100 | > 100 | > 100 | > 100 | > 100 | > 100 | – | – | – | – | – | – | – | – | – |
| O=C1Nc2cc(F)ccc2C1=O | > 100 | > 100 | > 100 | > 100 | – | – | > 100 | > 100 | > 100 | > 100 | – | – | – | – | – | – | – | – | – |
| CC(=N/NC(=S)N(C)C)/C(=N\NC(=S)N(C)C)c1ccccc1 | 7.96 | 8.56 | – | 3 | 9.77 | 4.64 | 3.97 | 4.04 | 3.78 | 3.5 | – | – | – | – | – | – | – | – | – |
| O=C1CSC(c2c[nH]c3ccccc23)N1c1ccc(Cl)cc1Cl (stereo not drawn) | > 100 | > 100 | > 100 | > 100 | > 100 | > 100 | > 100 | > 100 | > 100 | – | – | – | – | – | – | – | – | – | – |
| CC1(C)C=C(/C=C2/N(S(=O)(=O)C(F)(F)F)C(/C=C3/N(S(=O)(=O)C(F)(F)F)C(C)(C#N)CC3(C)C)=CC2(C)C)N=C1/C=C1/CC(C)(C)C(=O)N1 (stereo not drawn) | > 100 | > 100 | 21.2 | > 100 | 42.8 | > 100 | > 100 | > 100 | 27.9 | – | – | – | – | – | – | – | – | – | – |
| COc1cc(N=Nc2ccc(OC)c(S(=O)(=O)O)c2)c(C)cc1N=Nc1ccc(/C=C/c2ccc(N=[N+]([O-])c3ccc(/C=C/c4ccc(N=Nc5cc(C)c(N=Nc6ccc(OC)c(S(=O)(=O)O)c6)cc5OC)cc4S(=O)(=O)O)c(S(=O)(=O)O)c3)cc2S(=O)(=O)O)c(S(=O)(=O)O)c1 | > 100 | > 100 | > 100 | – | > 100 | – | > 100 | – | > 100 | > 100 | – | – | – | – | – | – | – | – | – |
| CCOC(=O)c1c(SCc2cc(=O)[nH]c(=O)[nH]2)n(-c2ccccc2)c(=S)n(-c2ccccc2)c1=O | > 100 | > 100 | – | > 100 | > 100 | > 100 | > 100 | > 100 | – | > 100 | – | – | – | – | – | – | – | – | – |
